{"source": "patent US7625713B2", "about": "“Process for identifying a ligand that binds to the NEP binding site for the SMR1 pentapeptide” (Institut Pasteur, priority 2000, dated 2009)", "key": {"Chelating-FPLC analyses": {"test": "Chelating-FPLC analyses", "format": "physicochemical", "source_text": "Otherwise, tissue-uptake of the sialorphin peptide involves a complex molecular species, including a cation mineral element, as the peptide was only recovered in the presence of a strong divalent metal ion chelating agent (Rougeot, C. et al. (1997), American Journal of Physiology 273, […]-20). […] The zinc ion, an essential component of the NEP catalytic site, is a common target of synthetic potent NEP inhibitors described elsewhere."}, "male rats": {"system": "male rats", "test": "Pin pain test", "format": "in vivo, rat", "procedure": "The 3-min test session was performed 5 min after intravenous. rat tail vein administration of sialorphin or its vehicle. Naloxone (0.3 mg per kg body weight) was injected subcutaneously 15 min before sialorphin administration. Time in centre field sector (FIG. 6-C) (central square of the open-field without pin) and activity (FIGS. 6-A and 6-B) in peripheral squares (overlayed with pins) during the 3-min test session. Each value represents the mean±sem of 8 animals per group. […] Control group corresponded to pain response in vehicle-treated rats. 50 μg/kg sialorphin, 100 μg/kg sialorphin, 100 μg/kg sialorphin plus naloxone 0.3 mg/kg.\nTo extend the insight into the in vivo possible antinociceptive property of sialorphin through enkephalin-degrading enzyme inhibition, its effects were assessed in rat model of pain, i.e. the pin pain test, (Hebert et al. (1999) Physiology & Behavior 67, 99-105) in which the various behavioural parameters of pain responses were recorded with a 3-min cutoff time.\nThe in vivo activity of sialorphin was tested on the pin pain assay using male rats (350-400 g, Charles Rivers). The experimental device consists in an open-field (45×45×40 cm) which is divided into nine equal squares (150×150 mm), eight of them are peripheral and one is central. The peripheral squares are overlayed with stainless steel pins (2/cm2, length 8 mm and diameter 0.6 mm). The test consisted in placing the rat in the central square of the open-field and recording its different behaviours (cut-off time, 3 min). Two days before the pain test, the rats were familiarised with the experimental device without pins for 20 min, so as to reduce the stress linked to the spatial neophobia. All statistical analyses were carried out using the Statview 5 statistical package."}, "NEP": {"target": "T1, NEP (Rattus norvegicus, UniProt P07861)", "T1 construct": "peripheral tissue membrane preparations that are known to be enriched in NEP-peptidase; from tissue; host or cells: rat renal outer medulla/kidney, intestine mucosa, placenta, prostate, dental and bone tissues, submandibular gland (membrane preparations)", "T1 sequence (P07861 2-750)": "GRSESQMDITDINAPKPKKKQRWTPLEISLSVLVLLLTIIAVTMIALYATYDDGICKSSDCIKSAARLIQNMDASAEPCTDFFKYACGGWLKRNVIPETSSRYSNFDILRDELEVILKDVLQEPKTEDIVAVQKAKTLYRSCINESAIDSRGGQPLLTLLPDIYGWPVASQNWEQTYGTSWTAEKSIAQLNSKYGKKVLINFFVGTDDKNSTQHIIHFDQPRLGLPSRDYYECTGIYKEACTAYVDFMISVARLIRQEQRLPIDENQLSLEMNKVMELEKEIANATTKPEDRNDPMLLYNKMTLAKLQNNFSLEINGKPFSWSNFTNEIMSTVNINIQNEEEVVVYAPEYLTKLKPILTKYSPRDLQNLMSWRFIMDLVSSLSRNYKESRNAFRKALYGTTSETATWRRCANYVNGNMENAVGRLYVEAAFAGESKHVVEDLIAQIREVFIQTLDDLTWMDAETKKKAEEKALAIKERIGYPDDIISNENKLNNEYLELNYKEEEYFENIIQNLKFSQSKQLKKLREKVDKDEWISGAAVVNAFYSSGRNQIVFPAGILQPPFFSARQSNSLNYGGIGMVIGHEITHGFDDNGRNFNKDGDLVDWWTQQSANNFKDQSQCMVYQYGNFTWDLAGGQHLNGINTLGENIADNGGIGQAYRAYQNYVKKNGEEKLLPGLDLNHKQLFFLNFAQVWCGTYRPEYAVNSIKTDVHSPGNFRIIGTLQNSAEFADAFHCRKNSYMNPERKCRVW", "test": "Kinetic analysis of inhibition of substance P catabolism by rat renal membranes", "format": "biochemical", "procedure": "The inhibitory potency of sialophin was measured by using substance P as substrate at concentrations indicated for A and B, and at 14-24 nM (blank triangle) or 56-105 nM (black triangle) for FIG. 5-C. Concentrations of inhibitor for FIG. 5-A and FIG. 5-B were 0 (black circles), 1500 (blank circle) and 4500 nM (blank diamond). Each point of the untransformed and double reciprocal plots represents the mean of 2 independent determinations of duplicate. Experiments were performed at 25° C. in 250 μl Tris-HCl buffer (50 mM pH 7.4) under initial velocity measurement conditions.\nIn order to determine inhibitor modality, all the measures of initial velocity of the renal enzymatic reaction were plotted versus substrate concentration for several fixed inhibitor concentrations or versus inhibitor concentration for fixed substrate concentrations."}, "[1]": {"target": "T2, purified rabbit renal NEP (Oryctolagus cuniculus, UniProt P08049)", "T2 construct": "purified rabbit renal NEP; from tissue; host or cells: rabbit kidney (purified enzyme)", "T2 sequence (P08049 1-750)": "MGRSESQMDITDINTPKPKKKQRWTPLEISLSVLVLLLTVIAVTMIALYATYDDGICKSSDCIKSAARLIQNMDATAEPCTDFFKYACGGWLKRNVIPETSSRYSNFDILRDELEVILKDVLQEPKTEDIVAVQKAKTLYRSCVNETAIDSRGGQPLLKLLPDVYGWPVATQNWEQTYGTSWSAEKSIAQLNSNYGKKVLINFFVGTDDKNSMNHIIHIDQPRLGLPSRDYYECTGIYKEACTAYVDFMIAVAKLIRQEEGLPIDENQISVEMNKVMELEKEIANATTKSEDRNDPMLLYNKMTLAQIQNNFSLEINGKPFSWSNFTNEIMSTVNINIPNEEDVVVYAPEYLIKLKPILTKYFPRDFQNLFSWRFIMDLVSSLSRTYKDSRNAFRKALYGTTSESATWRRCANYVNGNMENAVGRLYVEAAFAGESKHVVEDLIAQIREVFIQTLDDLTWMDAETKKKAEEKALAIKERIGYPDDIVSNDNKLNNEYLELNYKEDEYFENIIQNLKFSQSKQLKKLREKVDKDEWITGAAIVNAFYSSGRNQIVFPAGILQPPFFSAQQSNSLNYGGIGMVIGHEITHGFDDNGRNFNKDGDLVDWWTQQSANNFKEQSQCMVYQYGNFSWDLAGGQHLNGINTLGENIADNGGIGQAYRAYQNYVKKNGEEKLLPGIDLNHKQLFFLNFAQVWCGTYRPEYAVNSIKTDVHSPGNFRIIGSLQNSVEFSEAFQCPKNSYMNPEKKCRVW", "test": "Substance P catabolism by purified rabbit renal NEP", "format": "biochemical", "conditions": "substance P as substrate, read-out: inhibition of substance P catabolism by the soluble enzyme"}, "[2]": {"conditions": "100 μg per kg intravenous, 3-min trial, n=8, mean±sem"}}, "note": "Where a SMILES comes first, the peptide text is derived from it."}
{"smiles": "N=C(N)NCCC[C@H](NC(=O)[C@@H]1CCCN1C(=O)[C@H](CC(N)=O)NC(=O)[C@H](Cc1c[nH]cn1)NC(=O)[C@@H](N)CCC(N)=O)C(=O)O", "note": "[sialorphin, Gln-His-Asn-Pro-Arg] (H-QHNPR-OH; N-terminus and C-terminus assumed)", "values": [{"measurement": "zinc-chelating property", "setting": "Chelating-FPLC analyses", "result": "selective and strong zinc-chelating group"}, {"measurement": "frequency of crossings peripheral squares", "setting": "male rats; 100 μg per kg intravenous, 3-min trial 5 min after administration, n=8, mean±sem", "result": "11.13±1.43"}, {"measurement": "number of audible vocalisation responses", "setting": "male rats; [2]", "result": "0.25±0.16"}, {"measurement": "number of escape responses", "setting": "male rats; [2]", "result": "0.13±0.13"}, {"measurement": "rearings on peripheral squares", "setting": "male rats; [2]", "result": "3.88±0.83"}, {"measurement": "analgesia", "setting": "male rats; 100 μg/kg given intravenously", "result": "74-97%"}, {"measurement": "time in the central area of the open-field", "setting": "male rats; sialorphin intravenous alone, second test trial, 3-min test", "result": "57.75 ± 21.30", "unit": "s"}, {"measurement": "raising of the apparent Km of the enzyme for substrate", "setting": "NEP; 0, 1500 and 4500 nM inhibitor, substance P substrate, rat renal membranes", "result": "2-5 fold"}, {"measurement": "inhibitor modality", "setting": "NEP; untransformed, double-reciprocal and Dixon plots, [3H] substance P, renal membrane, 25° C.", "result": "competitive inhibition"}, {"measurement": "inhibition at 5 µM", "setting": "[1]", "result": 46, "unit": "%"}]}
